Entries after “also recorded” stand apart in the source; their conditions may differ.
Experiments:
full-length hPPARγ = target: T1, full-length hPPARγ (Homo sapiens, UniProt P37231); assay: PPARγ-activated luciferase reporter (transactivation) assay in Cos-7 cells; format: cell-based; details: at 33 μM and 100 μM
T1 construct: 50 ng of full-length hPPARγ plasmids; expressed in transfected cells; host or cells: Cos-7 cells (ATCC)
T1 sequence (P37231 1-505): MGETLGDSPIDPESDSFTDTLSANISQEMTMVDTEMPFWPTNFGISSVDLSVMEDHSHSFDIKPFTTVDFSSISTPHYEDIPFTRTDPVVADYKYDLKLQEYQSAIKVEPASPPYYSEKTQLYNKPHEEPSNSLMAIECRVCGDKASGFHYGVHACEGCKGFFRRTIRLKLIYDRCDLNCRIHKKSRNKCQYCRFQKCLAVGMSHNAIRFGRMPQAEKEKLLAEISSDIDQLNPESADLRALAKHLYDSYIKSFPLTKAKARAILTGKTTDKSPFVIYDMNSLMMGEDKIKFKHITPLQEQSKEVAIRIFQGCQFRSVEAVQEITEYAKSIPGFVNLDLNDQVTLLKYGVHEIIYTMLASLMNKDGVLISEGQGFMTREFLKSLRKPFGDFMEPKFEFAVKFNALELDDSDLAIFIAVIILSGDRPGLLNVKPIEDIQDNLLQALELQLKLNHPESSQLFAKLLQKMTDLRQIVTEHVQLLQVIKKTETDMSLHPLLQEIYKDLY
Description: Fig. 3 Luciferase reporter assay of PPARγ activation in Cos-7 cells. The luciferase activity was normalized against renilla luciferase units. Fold activation was calculated against DMSO with no ligand treatment. […] Concentration is represented as log10 scale (n = 3, error bars = SEM). […]
and 25 mM of imidazole) per 6 liters of cells, and passed three times through a French press with pressure set at […]. The lysate was cleared by centrifugation at 48,000 x g for 30 minutes and the supernatant was purified by loading on 2x5 mL HiLoad Nickel HP columns (GE Healthcare). The 6×His SUMO tag was removed by cleavage with the Sumo protease Ulp1 at a protease: protein ratio of 1:1000), and the tag was separated from the PPARγ LBD by a second pass through the Nickel column. PPARγ monomer was further purified by gel filtration (HiLoad 26/60 Superdex 200 (GE Healthcare)) with 20 mM of Tris (pH 8.0), 100 mM of NaCl, and 5 mM of DTT as buffer. The PPARγ LBD protein was complexed with PGC1α1 peptide […]
([…]) at a 1:1.2 molar ratio and with compound at a 1:5 molar ratio and then filter-concentrated to 10 mg/mL.
Cell-based transactivation assay […]
Excitation of the terbium at 340 nm results in FRET to the fluorescent tracer, with emissions detected at 520 nm and 495 nm. […]
The inhibition constant (ki) for a competitor was calculated by applying the […]

PPARδ = target: T2, PPARδ (Homo sapiens, UniProt Q03181); assay: Competitive TR-FRET assay, PPARδ; details: even at 100 μM
T2 sequence (Q03181 1-441): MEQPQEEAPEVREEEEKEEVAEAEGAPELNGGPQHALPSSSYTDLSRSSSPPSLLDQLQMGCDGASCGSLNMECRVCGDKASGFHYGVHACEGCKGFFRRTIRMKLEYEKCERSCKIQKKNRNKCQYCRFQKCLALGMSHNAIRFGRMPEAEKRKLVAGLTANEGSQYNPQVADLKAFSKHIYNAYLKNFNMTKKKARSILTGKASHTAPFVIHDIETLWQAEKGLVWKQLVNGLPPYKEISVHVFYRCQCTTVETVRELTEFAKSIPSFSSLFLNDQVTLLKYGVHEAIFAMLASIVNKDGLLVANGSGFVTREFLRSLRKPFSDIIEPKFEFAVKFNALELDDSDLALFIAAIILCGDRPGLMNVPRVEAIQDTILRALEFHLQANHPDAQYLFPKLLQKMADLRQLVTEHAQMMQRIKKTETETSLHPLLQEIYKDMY

PPARα = target: T3, PPARα (Homo sapiens, UniProt Q07869); assay: Competitive TR-FRET assay, PPARα; details: even at 100 μM
T3 sequence (Q07869 1-468): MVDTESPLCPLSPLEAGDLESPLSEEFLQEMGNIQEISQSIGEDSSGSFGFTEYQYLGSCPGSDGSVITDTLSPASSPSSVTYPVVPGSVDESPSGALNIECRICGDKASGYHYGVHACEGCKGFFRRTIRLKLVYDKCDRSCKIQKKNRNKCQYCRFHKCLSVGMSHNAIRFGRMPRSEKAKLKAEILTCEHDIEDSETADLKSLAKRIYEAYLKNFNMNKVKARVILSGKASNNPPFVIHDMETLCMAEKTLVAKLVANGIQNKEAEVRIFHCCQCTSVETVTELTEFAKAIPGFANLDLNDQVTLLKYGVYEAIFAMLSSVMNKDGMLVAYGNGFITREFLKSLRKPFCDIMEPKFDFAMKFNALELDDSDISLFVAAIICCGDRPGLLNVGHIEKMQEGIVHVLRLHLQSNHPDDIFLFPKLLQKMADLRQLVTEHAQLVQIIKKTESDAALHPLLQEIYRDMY

[1] = target: hERG potassium ion channel (Homo sapiens, UniProt Q12809); assay: Inhibition assay on the hERG potassium ion channel
Sequence of hERG potassium ion channel (Q12809 whole entry): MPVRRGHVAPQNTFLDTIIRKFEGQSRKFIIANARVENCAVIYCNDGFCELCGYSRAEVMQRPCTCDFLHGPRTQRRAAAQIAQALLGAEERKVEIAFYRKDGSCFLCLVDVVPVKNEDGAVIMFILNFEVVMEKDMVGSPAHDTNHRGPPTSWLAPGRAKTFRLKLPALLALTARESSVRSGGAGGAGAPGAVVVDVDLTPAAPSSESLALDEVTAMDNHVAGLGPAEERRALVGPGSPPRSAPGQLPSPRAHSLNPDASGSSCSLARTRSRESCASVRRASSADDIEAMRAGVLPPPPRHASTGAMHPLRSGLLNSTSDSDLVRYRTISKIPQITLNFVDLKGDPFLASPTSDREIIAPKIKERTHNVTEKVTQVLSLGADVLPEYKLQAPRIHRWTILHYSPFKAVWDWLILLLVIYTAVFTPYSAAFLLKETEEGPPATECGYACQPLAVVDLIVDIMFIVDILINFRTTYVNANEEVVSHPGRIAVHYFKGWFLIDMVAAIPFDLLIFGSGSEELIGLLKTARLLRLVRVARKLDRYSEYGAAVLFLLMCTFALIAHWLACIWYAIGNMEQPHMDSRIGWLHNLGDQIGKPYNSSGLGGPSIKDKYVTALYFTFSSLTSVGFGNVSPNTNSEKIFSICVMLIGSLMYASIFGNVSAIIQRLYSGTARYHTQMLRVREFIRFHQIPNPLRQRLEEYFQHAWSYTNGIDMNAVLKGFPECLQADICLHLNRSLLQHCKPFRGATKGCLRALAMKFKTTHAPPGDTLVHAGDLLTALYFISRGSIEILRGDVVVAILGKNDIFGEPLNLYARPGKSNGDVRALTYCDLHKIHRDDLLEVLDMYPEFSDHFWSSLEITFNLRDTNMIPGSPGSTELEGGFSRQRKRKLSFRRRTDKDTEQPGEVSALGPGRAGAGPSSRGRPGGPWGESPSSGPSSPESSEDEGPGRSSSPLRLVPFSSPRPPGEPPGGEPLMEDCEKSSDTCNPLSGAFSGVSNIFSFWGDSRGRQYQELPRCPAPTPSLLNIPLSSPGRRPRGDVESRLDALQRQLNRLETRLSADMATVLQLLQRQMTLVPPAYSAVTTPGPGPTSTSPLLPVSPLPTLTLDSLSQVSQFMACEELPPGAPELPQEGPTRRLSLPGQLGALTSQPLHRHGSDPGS

agonistic activity (fold activation of luciferase reporter) (full-length hPPARγ): weakly agonistic
effect on PPARδ (in words) (PPARδ): no obvious effects
effect on PPARα (in words) (PPARα): no obvious effects
SMILES: CCCCCCCC(OCC(=O)O)c1ccc(Cl)cc1 (centres unmarked) [VSP-77]
IC50 [1]: > 50 µM
hERG inhibition (in words) ([1]; even at 50 μM): no obvious inhibition; also recorded: no detectable hERG inhibition

Reference: PMC7059199, “Identification and structural insight of an effective PPARγ modulator with improved therapeutic index for anti-diabetic drug discovery” (Chemical Science, 2020)
